Test results reported in patent EP2931723B1, “NEW BICYCLIC COMPOUNDS AND THEIR USE AS ANTIBACTERIAL AGENTS AND -LACTAMASE INHIBITORS” (Fedora Pharmaceuticals Inc., priority 2012, dated 2014).

What was measured:
Assay in all cases: MIC, antibacterial and synergistic activity
Type in all cases: cell-based
[1] = system: E. cloacae JMI 36; conditions: E. cloacae JMI 36 (P99)
[2] = system: K.pneumo JMI 4109; conditions: K.pneumo JMI 4109 (SHV-1, SHV-12); substance alone
[3] = system: K. pneumo JMI 2693; conditions: K. pneumo JMI 2693 (NDM-1 (Cpase))
Experimental: (§1) In the Tables 10 - 12, compounds herein disclosed were tested in combination with various antibiotics against metallo β-lactamase producing bacteria.

[4] = system: E. coli JMI 2692; conditions: E. coli JMI 2692 (NDM-1, TEM-1, CTX-M-15)
Experimental: as §1

[5] = system: K. pneumo JMI 2674; conditions: K. pneumo JMI 2674 (CTX-M15 (ESBL)); substance alone
[6] = system: K. pneumo JMI 2673; conditions: K. pneumo JMI 2673 (CTX-M14 (ESBL)); substance alone
[7] = system: E. coli ATCC 25922; conditions: E. coli ATCC 25922 (Wt)
[8] = system: E. coli JMI 10767; conditions: E. coli JMI 10767 (Wt)
[9] = system: E.coli JMI 4103; conditions: E.coli JMI 4103 (KPC-2, Tem-1, CMY-Type)
[10] = system: K. pneumo JMI 2681; conditions: K. pneumo JMI 2681 (Oxa-48 (Cpase))
[11] = system: E. coli JMI 10770; conditions: Escherichia coli, JMI10770; E. coli JMI 10770 (CTX-M15 (Hyper ESBL)); substance alone
[12] = system: E. coli JMI 2665
Experimental: (§2) In the Tables 10 - 12, compounds herein disclosed were tested in combination with various antibiotics against metallo β-lactamase producing bacteria. Table 3: Synergy of the inhibitor Ex. 1 (4 µg/mL) in combination with antibiotics

[13] = system: P. aerug JMI 2686; conditions: P. aerug JMI 2686 (KPC-2 (Cpase))
In short: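 This antibacterial synergy assay measured the minimum inhibitory concentration of antibiotics combined with the disclosed inhibitor compounds. The inhibitor was held at 4 µg/mL throughout. The aim was to see whether the added compound strengthened the antibiotic's action against the tested bacteria.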

[14] = system: K. pneumo JMI 2674; conditions: K. pneumo JMI 2674 (CTX-M15 (ESBL))
In short: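 Antibacterial activity was assessed as minimum inhibitory concentrations against a β-lactamase-producing bacterial strain. Each test inhibitor was combined with an antibiotic, with the inhibitor held at a fixed 4 µg/mL, to determine whether it acted synergistically and restored the antibiotic's effect against the resistant organism.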

[15] = system: E. coli JMI 10767; conditions: E. coli JMI 10767 (Wt); remark: listed apart in the source
Experimental: as §2

[16] = system: K. pneumo JMI 2673; conditions: K. pneumo JMI 2673 (CTX-M14 (ESBL))
In short: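 Compounds were evaluated together with various antibiotics to measure synergistic antibacterial activity. For each combination, the minimum inhibitory concentration of the antibiotic was recorded while the inhibitor was present at a constant 4 µg/mL.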

[17] = system: E. coli JMI 10768; conditions: E. coli JMI 10768 (CTX-M15 (Weak ESBL))
Experimental: as §2

[18] = system: E. coli JMI 2671
In short: (§3)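 Read-out is the MIC of each antibiotic with 4 µg/mL inhibitor present, in metallo β-lactamase-producing strains.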

[19] = system: K. pneumo JMI 4088; conditions: K. pneumo JMI 4088 (KPC-3 (Cpase))
In short: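 Minimum inhibitory concentrations were measured for antibiotics given together with the test inhibitor, held at 4 µg/mL, against bacteria that produce β-lactamase. The purpose was to see whether the inhibitor restores or boosts antibacterial activity, that is, synergy with the antibiotic.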

[20] = system: K. pneumo JMI 2699; conditions: K. pneumo JMI 2699 (VIM-1, CTX-M3)
In short: as §3

[21] = system: K.pneumo JMI 4109; conditions: K.pneumo JMI 4109 (SHV-1, SHV-12)
In short: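 Antibacterial synergy was assessed by pairing each inhibitor compound, at a constant concentration of 4 µg/mL, with β-lactam antibiotics. The combinations were run against bacterial strains that produce β-lactamases, and the readout was the minimum inhibitory concentration of the antibiotic in the presence of the inhibitor.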

[22] = system: E. coli JMI 10770; conditions: E. coli JMI 10770 (CTX-M15 (Hyper ESBL))
Experimental: as §2

[23] = Aztreonam + inhibitor at 4 µg/mL
[24] = Ceftazidime + inhibitor at 4 µg/mL
[25] = Meropenem + inhibitor at 4 µg/mL

O=C(NNC(=O)[C@H]1CC[C@H]2CN1C(=O)N2OS(=O)(=O)O)C1CC1 (stereo in doubt) [Ex. 7, (2R,5S)-N'-(cyclopropylcarbonyl)-7-oxo-6-(sulfooxy)-1,6-diazabicyclo[3.2.1]octane-2-carbohydrazide]
MIC Aztreonam + inhibitor [1, 23]: 0.125 µg/mL | MIC Ceftazidime + inhibitor [1, 24]: 0.5 µg/mL | MIC Meropenem + inhibitor [1, 25]: 0.125 µg/mL | MIC ([1]; Enterobacter cloacae, JMI36, substance alone, read-out: MIC): > 16 µg/mL | MIC [2]: 2 µg/mL | MIC Aztreonam + inhibitor [3, 23]: 1 µg/mL | MIC Ceftazidime + inhibitor [3, 24]: 2 µg/mL | MIC Meropenem + inhibitor [3, 25]: 0.25 µg/mL | MIC ([3]; substance alone): > 16 µg/mL | MIC Aztreonam + inhibitor [4, 23]: ≤0.062 µg/mL | MIC Ceftazidime + inhibitor [4, 24]: ≤0.25 µg/mL | MIC Meropenem + inhibitor [4, 25]: 0.5 µg/mL | MIC ([4]; Escherichia coli, JMI2692, substance alone, read-out: MIC): 8 µg/mL | MIC [5]: > 16 µg/mL | MIC [6]: > 16 µg/mL | MIC Aztreonam + inhibitor [7, 23]: ≤0.0625 µg/mL | MIC Ceftazidime + inhibitor [7, 24]: ≤0.25 µg/mL | MIC Meropenem + inhibitor [7, 25]: ≤0.0312 µg/mL | MIC ([7]; Escherichia coli, ATCC25922, substance alone): > 16 µg/mL | MIC Meropenem + inhibitor [8, 25]: ≤0.0312 µg/mL | MIC ([8]; Escherichia coli, JMI10767, substance alone): 8 µg/mL | MIC Aztreonam + inhibitor [9, 23]: ≤0.062 µg/mL | MIC Ceftazidime + inhibitor [9, 24]: ≤0.25 µg/mL | MIC Meropenem + inhibitor [9, 25]: ≤0.0312 µg/mL | MIC ([9]; Escherichia coli, JMI4103, substance alone): 2 µg/mL | MIC Aztreonam + inhibitor [10, 23]: 0.25 µg/mL | MIC Ceftazidime + inhibitor [10, 24]: 0.5 µg/mL | MIC Meropenem + inhibitor [10, 25]: 0.25 µg/mL | MIC ([10]; substance alone, read-out: MIC): > 16 µg/mL | MIC [11]: 8 µg/mL | MIC Aztreonam + inhibitor ([12]; E. coli JMI 2665 (CMY-2 (Plasmid Cpase)), Aztreonam + inhibitor at 4 µg/mL): ≤0.062 µg/mL | MIC Ceftazidime + inhibitor ([12]; E. coli JMI 2665 (CMY-2 (Plasmid Cpase)), Ceftazidime + inhibitor at 4 µg/mL): ≤0.25 µg/mL | MIC ([12]; Escherichia coli, JMI2665): 2 µg/mL | MIC Aztreonam + inhibitor [13, 23]: >4 µg/mL | MIC Ceftazidime + inhibitor [13, 24]: >16 µg/mL | MIC Meropenem + inhibitor [13, 25]: >2 µg/mL | MIC Aztreonam + inhibitor [14, 23]: ≤0.062 µg/mL | MIC Ceftazidime + inhibitor [14, 24]: ≤0.25 µg/mL | MIC Meropenem + inhibitor [14, 25]: 0.125 µg/mL | MIC Aztreonam + inhibitor [15, 23]: ≤0.062 µg/mL | MIC Ceftazidime + inhibitor [15, 24]: ≤0.25 µg/mL | MIC Aztreonam + inhibitor [16, 23]: ≤0.062 µg/mL | MIC Ceftazidime + inhibitor [16, 24]: ≤0.25 µg/mL | MIC Meropenem + inhibitor [16, 25]: ≤0.0312 µg/mL | MIC Aztreonam + inhibitor [17, 23]: ≤0.062 µg/mL | MIC Ceftazidime + inhibitor [17, 24]: 2 µg/mL | MIC ([17]; Escherichia coli, JMI10768, substance alone): 16 µg/mL | MIC Aztreonam + inhibitor ([18]; E. coli JMI 2671 (VIM-19 (Cpase)), Aztreonam + inhibitor at 4 µg/mL): ≤0.062 µg/mL | MIC Ceftazidime + inhibitor ([18]; E. coli JMI 2671 (VIM-19 (Cpase)), Ceftazidime + inhibitor at 4 µg/mL): 0.5 µg/mL | MIC Meropenem + inhibitor ([18]; E. coli JMI 2671 (VIM-19 (Cpase)), Meropenem + inhibitor at 4 µg/mL): 0.5 µg/mL | MIC ([18]; Escherichia coli, JMI2671, E. coli JMI 2671 (VIM-19 (Cpase)), substance alone): 8 µg/mL | MIC Aztreonam + inhibitor [19, 23]: 0.125 µg/mL | MIC Ceftazidime + inhibitor [19, 24]: 1 µg/mL | MIC Meropenem + inhibitor [19, 25]: 1 µg/mL | MIC Aztreonam + inhibitor [20, 23]: ≤0.062 µg/mL | MIC Ceftazidime + inhibitor [20, 24]: 0.5 µg/mL | MIC Meropenem + inhibitor [20, 25]: 0.5 µg/mL | MIC ([20]; substance alone, read-out: MIC): 16 µg/mL | MIC Aztreonam + inhibitor [21, 23]: 0.125 µg/mL | MIC Ceftazidime + inhibitor [21, 24]: ≤0.25 µg/mL | MIC Meropenem + inhibitor [21, 25]: ≤0.0312 µg/mL | MIC Aztreonam + inhibitor [22, 23]: ≤0.062 µg/mL | MIC Ceftazidime + inhibitor [22, 24]: ≤0.25 µg/mL | MIC Meropenem + inhibitor [22, 25]: ≤0.0312 µg/mL
